In assay [1] the target is T1, CDK7/Cyclin H/MNAT1 (Homo sapiens, UniProt P50613).
T1 construct: purchased Invitrogen PR6749B
The experiment in a line: Enzymatic assay for CDK7 (LANCE Ultra kinase assay, FRET based). Type of assay: biochemical. In a few lines: (§1)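 FRET read-out: Eu-labeled anti-phospho-antibody binding a phosphorylated ULight peptide. Purified CDK–cyclin complex, ATP at Km.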

For assay [2], the target named is T2, 28 CDKs family protein kinases (Homo sapiens, UniProt Q00535). The experiment in a line: In vitro IC50 profile for CDKs family kinase (33PanQinase Activity Assay, ProQinase). To be noted: CDK5/p35NCK; read-out: CDK7 selectivity profile in CDKs family, IC50. Also noted: purchased ProQinase GmbH; host or cells: Sf9 insect cells or E. coli. Type of assay: biochemical. As to the method: (§2) The IC50 profile of compound 11 was determined using 28 CDKs family protein kinases through ProQinase GmbH (Freiburg, Germany). All the protocol and materials had been provided by ProQinase GmbH. Briefly, in the process, 90 μl H2O were added to each well of a compound dilution plate. To minimize potential precipitation, the H2O was added to the plate only a few minutes before the transfer of the compound solutions into the assay plates. The plate was shaken thoroughly, resulting in a “compound dilution plate/10% DMSO”. The compound dilution plate(s) were discarded at the end of the working day. For the assays (see below), 5 μl solution from each well of the compound dilution plate were transferred into the assay plates. The final volume of the assay was 50 μl. […] Kinases from external vendors, Carna Biosciences Inc.; Invitrogen Corp.; and Millipore Corp., were expressed, purified and quality-controlled by virtue of the vendors readings. […] Incorporation of ^33Pi was determined with a microplate scintillation counter (Microbeta, Wallac). […] The residual activity (in %) for each well of a particular plate was calculated by using the following formula: Res. Activity (%)=100×[(cpm of compound−low control)/(high control−low control)].
Target sequence in this assay (Q00535 whole entry): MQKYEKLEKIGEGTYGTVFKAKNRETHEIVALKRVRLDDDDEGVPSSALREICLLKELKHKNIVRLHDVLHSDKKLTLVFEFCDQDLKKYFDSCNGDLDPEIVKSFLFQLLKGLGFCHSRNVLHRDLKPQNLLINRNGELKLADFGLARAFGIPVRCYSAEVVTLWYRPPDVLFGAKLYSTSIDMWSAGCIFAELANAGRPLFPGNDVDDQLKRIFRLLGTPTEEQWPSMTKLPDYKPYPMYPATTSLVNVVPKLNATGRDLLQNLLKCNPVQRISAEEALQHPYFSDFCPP
Target sequence in this assay (Q15078 whole entry partner): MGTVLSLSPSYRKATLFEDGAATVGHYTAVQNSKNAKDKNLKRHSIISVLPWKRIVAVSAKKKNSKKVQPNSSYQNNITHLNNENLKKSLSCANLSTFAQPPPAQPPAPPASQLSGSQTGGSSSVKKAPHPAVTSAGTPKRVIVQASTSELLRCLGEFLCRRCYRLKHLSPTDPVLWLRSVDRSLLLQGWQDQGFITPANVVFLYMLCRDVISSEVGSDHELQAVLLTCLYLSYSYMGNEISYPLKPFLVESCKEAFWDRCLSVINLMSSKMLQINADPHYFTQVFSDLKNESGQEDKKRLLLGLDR

Assay [3] concerns the target T2, 28 CDKs family protein kinases. The assay is described as above. Type of assay: biochemical. Also noted: fused on or other part: GST or His tag. To be noted: CDK5/p25NCK; read-out: CDK7 selectivity profile in CDKs family, IC50. On the procedure:
as §2
Target sequence in this assay (Q00535 whole entry): as the sequence (Q00535 whole entry) above

Assay [4] concerns the target T3, CDK1/Cyclin B (Homo sapiens, UniProt P06493).
T3 construct: purchased Invitrogen PR4768C
The experiment in a line: Enzymatic assay for CDK1 (LANCE Ultra kinase assay, FRET based). As to conditions: ATP at Km; read-out: CDK1 enzymatic activity IC50. Type of assay: biochemical. In a few lines:
as §1

Assay [5] relates to MV4-11. The experiment in a line: Cellular MV4-11 viability assay (CellTiter-Glo, 72 hours). The class given is cell-based. To be noted: Homo sapiens; MV4-11 cells. In a few lines:
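CellTiter-Glo luminescence read-out after 72 h compound exposure at 37° C, 5% CO2, duplicates. Seeding densities: MV4-11 1×10^4 cells/well, OVCAR-3 5×10^3, A2780 1×10^3. Dose range 0.0015 uM to 10 uM, added 24 h post-plating; DMSO control, final <0.1%.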

SMILES strings stand for the structures. Read-outs that look alike come from different tables or passages of the source.

T1 sequence (P50613 whole entry): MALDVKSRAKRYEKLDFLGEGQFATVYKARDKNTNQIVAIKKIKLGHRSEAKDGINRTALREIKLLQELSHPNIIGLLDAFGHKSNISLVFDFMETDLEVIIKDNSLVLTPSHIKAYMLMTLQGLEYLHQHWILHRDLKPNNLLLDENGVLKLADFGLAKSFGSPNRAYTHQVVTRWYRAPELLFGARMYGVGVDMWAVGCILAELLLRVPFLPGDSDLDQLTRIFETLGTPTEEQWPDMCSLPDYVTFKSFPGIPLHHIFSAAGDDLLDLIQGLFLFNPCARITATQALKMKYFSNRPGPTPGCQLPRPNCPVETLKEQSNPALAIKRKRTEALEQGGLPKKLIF
T1 sequence (P51946 whole entry partner): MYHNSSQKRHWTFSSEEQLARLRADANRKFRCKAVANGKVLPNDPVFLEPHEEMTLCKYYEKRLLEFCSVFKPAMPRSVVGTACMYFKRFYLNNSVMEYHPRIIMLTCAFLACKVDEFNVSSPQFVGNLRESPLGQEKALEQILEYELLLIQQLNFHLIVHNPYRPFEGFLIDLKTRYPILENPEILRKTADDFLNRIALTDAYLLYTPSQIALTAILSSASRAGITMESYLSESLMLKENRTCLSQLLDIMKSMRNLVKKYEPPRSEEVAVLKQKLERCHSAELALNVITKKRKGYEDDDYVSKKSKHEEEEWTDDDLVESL
T1 sequence (P51948 whole entry partner): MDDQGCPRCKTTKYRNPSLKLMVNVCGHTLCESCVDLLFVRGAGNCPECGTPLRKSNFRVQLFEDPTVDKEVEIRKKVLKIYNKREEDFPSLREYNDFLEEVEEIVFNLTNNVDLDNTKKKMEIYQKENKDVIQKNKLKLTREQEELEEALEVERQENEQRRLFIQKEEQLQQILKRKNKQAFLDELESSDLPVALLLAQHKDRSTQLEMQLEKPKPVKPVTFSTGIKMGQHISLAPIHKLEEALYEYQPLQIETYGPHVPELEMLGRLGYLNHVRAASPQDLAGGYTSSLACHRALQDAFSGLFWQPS
T3 sequence (P06493 whole entry): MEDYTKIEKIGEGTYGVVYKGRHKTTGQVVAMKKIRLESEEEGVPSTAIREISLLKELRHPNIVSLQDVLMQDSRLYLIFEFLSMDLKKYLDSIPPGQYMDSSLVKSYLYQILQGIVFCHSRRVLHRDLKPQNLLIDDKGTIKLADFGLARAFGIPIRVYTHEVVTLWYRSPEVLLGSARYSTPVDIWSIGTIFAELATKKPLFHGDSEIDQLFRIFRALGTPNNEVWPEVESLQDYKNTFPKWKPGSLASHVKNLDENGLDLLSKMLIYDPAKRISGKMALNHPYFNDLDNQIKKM
T3 sequence (P14635 whole entry partner): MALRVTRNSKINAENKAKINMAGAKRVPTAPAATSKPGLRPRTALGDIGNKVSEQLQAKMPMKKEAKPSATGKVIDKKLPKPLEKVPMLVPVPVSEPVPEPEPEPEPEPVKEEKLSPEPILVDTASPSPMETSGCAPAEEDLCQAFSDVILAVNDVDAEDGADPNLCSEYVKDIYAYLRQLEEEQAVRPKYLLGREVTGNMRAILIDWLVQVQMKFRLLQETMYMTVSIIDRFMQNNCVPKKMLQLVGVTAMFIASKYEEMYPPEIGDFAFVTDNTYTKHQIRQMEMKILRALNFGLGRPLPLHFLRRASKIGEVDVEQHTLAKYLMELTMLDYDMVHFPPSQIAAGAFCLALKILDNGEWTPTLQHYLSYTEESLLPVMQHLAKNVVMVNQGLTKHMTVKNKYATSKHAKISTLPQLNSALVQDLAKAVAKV

For the compound `CC(C)c1cnn2c(NCc3ccccc3-c3nccc4cc(NC(=O)/C=C/CN(C)C)ccc34)nc(N3CCC(N)CC3)nc12` [Compound 11], the IC50 was less than 0.1 µM in assay [1] (ATP at Km); 7.86 µM in assay [2]; more than 10 µM in assay [3]; more than 1 µM in assay [4]; less than 1 µM in assay [5]. In addition, the “CDK1/CDK7: Selectivity of CDK7 inhibition over CDK1 inhibition” value in assay [1] (CDK7 over CDK1) was “A (A indicates [fold] > 500)”. Also, in assay [1] (CDK7 over CDK2), the “CDK2/CDK7: Selectivity of CDK7 inhibition over CDK2 inhibition” value is “A (A indicates [fold] > 500)”. In addition, the “CDK5/CDK7: Selectivity of CDK7 inhibition over CDK5 inhibition” value in assay [1] (CDK7 over CDK5) was “A (A indicates [fold] > 500)”.

The values above are taken from patent US12606561B2, “Substituted pyrazolo[1,5-a][1,3,5]triazines as CDK inhibitors” (QURIENT CO., LTD., priority 2018, dated 2026).
